Results reported in DBAASP.
Values after ≈ are worked out from the molar mass of the structure shown. Values joined by “and” are separate entries in the source; they are usually repeats but may differ in a detail not shown here. Equal values may be shown once. One block for each compound: values may come before it.

Tests used:
Experiment in all cases: ≥ marks a high value that may be exact or a test limit, other limits are often not marked, values filed in µg/mL are converted to µM
[1] = test system: Aspergillus flavus KCTC 9471
[2] = test system: Listeria monocytogenes KCTC 3710
Botrytis cinerea = test system: Botrytis cinerea
Proteus vulgaris = test system: Proteus vulgaris
Trichosporon beigelii = test system: Trichosporon beigelii
[3] = test system: Candida albicans KCTC 7270
[4] = test system: Aspergillus fumigatus KCTC 6145
Fusarium verticillioides = test system: Fusarium verticillioides
Saccharomyces cerevisiae = test system: Saccharomyces cerevisiae
Escherichia coli = test system: Escherichia coli
[5] = test system: Escherichia coli O157:H7 ATCC 43895
Bacillus subtilis = test system: Bacillus subtilis
Pseudomonas aeruginosa = test system: Pseudomonas aeruginosa
Staphylococcus aureus = test system: Staphylococcus aureus
[6] = test system: Staphylococcus epidermidis
Salmonella typhimurium = test system: Salmonella typhimurium
[7] = test system: Fusarium solani MTCC 10158
[8] = test system: Escherichia coli ATCC 25922
[9] = test system: Listeria monocytogenes ATCC 3710
[10] = test system: Staphylococcus aureus ATCC 29213
[11] = test system: Pseudomonas aeruginosa ATCC 15692
[12] = test system: Proteus vulgaris KCTC 2433
[13] = test system: Bacillus subtilis KCTC 1998
[14] = test system: Candida albicans NCTC 3179
[15] = test system: Staphylococcus aureus ATCC 25923
[16] = test system: Penicillium expansum EPS 26
[17] = test system: Aspergillus niger CECT 2694
[18] = test system: Rhizopus stolonifer CECT 2344
[19] = test system: Fusarium oxysporum f. sp. lycopersici ATCC 201829

SMILES: CC[C@H](C)[C@H](NC(=O)[C@H](CCCCN)NC(=O)[C@H](CO)NC(=O)[C@H](Cc1ccccc1)NC(=O)[C@H](CC(C)C)NC(=O)[C@H](CCCCN)NC(=O)[C@H](CCC(=O)O)NC(=O)[C@H](CC(C)C)NC(=O)[C@H](CCCN=C(N)N)NC(=O)[C@H](CCCCN)NC(=O)[C@H](Cc1ccccc1)NC(=O)[C@@H](NC(=O)[C@H](CCCCN)NC(=O)[C@H](CCCCN)NC(=O)[C@H](C)N)C(C)C)C(=O)N[C@@H](Cc1ccccc1)C(=O)N[C@@H](CC(N)=O)C(=O)N[C@@H](Cc1ccccc1)C(=O)N[C@@H](CCCCN)C(N)=O [AKKVFKRLEKLFSKIFNFK]
- MIC [1]: ≥ 50 µM
- MIC [2]: 0.78 µM (≈ 1.85 µg/mL)
- MIC (Botrytis cinerea): 12.5 µM (≈ 29.6 µg/mL)
- MIC (Proteus vulgaris): 3.13 µM (≈ 7.42 µg/mL)
- MIC (Trichosporon beigelii): 3.13 µM (≈ 7.42 µg/mL)
- MIC [3]: 25 µM (≈ 59.3 µg/mL)
- MIC [4]: ≥ 35.4 µM
- MIC (Fusarium verticillioides): 12.5 µM (≈ 29.6 µg/mL)
- MIC (Saccharomyces cerevisiae): 25 µM (≈ 59.3 µg/mL)
- MIC (Escherichia coli): 3.13 µM (≈ 7.42 µg/mL)
- MIC [5]: 6.25 µM (≈ 14.8 µg/mL)
- MIC (Bacillus subtilis): 1.56 µM (≈ 3.7 µg/mL)
- MIC (Pseudomonas aeruginosa): 6.25 µM (≈ 14.8 µg/mL)
- MIC (Staphylococcus aureus): 3.13 µM (≈ 7.42 µg/mL)
- MIC [6]: 6.25 µM (≈ 14.8 µg/mL)
- MIC (Salmonella typhimurium): 0.39 µM (≈ 0.925 µg/mL)

SMILES: CC(C)C[C@H](NC(=O)[C@H](C)NC(=O)[C@H](CCCCN)NC(=O)[C@H](CC(C)C)NC(=O)[C@H](CCCCN)NC(=O)[C@H](CCCN=C(N)N)NC(=O)[C@H](CCCN=C(N)N)NC(=O)[C@H](Cc1c[nH]c2ccccc12)NC(=O)[C@H](C)N)C(=O)N[C@@H](C)C(=O)N1CCC[C@H]1C(=O)N[C@@H](C)C(=O)N[C@@H](CCCCN)C(=O)N[C@@H](CCCCN)C(=O)N[C@@H](C)C(=O)N[C@@H](CCCCN)C(=O)N[C@H](C(=O)O)C(C)C [AWRRKLKALAPAKKAKV]
- MIC [7]: 22.4 µM and ≥ 50 µM

SMILES: CC[C@H](C)[C@H](NC(=O)[C@H](Cc1cnc[nH]1)NC(=O)[C@H](Cc1cnc[nH]1)NC(=O)[C@@H](NC(=O)[C@H](CC(C)C)NC(=O)[C@H](Cc1cnc[nH]1)NC(=O)CNC(=O)[C@H](CCCCN)NC(=O)CNC(=O)[C@H](Cc1cnc[nH]1)NC(=O)[C@H](CCCCN)NC(=O)[C@@H](NC(=O)[C@H](CO)NC(=O)CNC(=O)[C@H](CCCCN)NC(=O)[C@H](Cc1ccccc1)NC(=O)[C@H](CCCN=C(N)N)NC(=O)[C@H](CCCCN)NC(=O)[C@@H](N)Cc1ccccc1)C(C)C)C(C)C)C(=O)NCC(=O)N[C@H](C(=O)N[C@@H](C)C(=O)N[C@@H](CC(C)C)C(N)=O)C(C)C [FKRFKGSVKHGKGHLVHHIGVAL]
- MIC [8]: 2 µM and 4 µM
- MIC [9]: 8 µM and 4 µM
- MIC [10]: 8 µM and 16 µM
- MIC [11]: ≥ 32 µM and 16 µM
- MIC [12]: 4 µM and 8 µM
- MIC [13]: 4 µM (≈ 10.2 µg/mL)

Now from value to compound:

- MIC [8]: 1.97 µM (≈ 5.7 µg/mL)
- MIC [14]: 24.8 µM (≈ 72 µg/mL)
- MIC [15]: 1.66 µM (≈ 4.8 µg/mL)
SMILES: CC[C@H](C)[C@H](NC(=O)[C@H](CCCCN)NC(=O)[C@@H](NC(=O)[C@@H](NC(=O)[C@H](C)NC(=O)[C@@H]1CCCN1C(=O)[C@H](CC(C)C)NC(=O)[C@H](Cc1c[nH]c2ccccc12)NC(=O)[C@@H](N)[C@@H](C)O)C(C)C)[C@@H](C)CC)C(=O)N[C@@H](CCC(N)=O)C(=O)N[C@@H](C)C(=O)N[C@@H](Cc1cnc[nH]1)C(=O)N[C@@H](Cc1c[nH]c2ccccc12)C(=O)N[C@@H](CCCN=C(N)N)C(=O)NCC(=O)N[C@@H](Cc1ccc(O)cc1)C(=O)N[C@@H](CCCN=C(N)N)C(=O)N[C@@H](CCC(N)=O)C(=O)N[C@@H](CCCN=C(N)N)C(=O)N[C@@H](CCCCN)C(=O)N[C@H](C(=O)N[C@@H](Cc1ccc(O)cc1)C(=O)N[C@@H](CC(C)C)C(=O)O)[C@@H](C)CC [TWLPAVIKIQAHWRGYRQRKIYL]

- MIC [16]: ≥ 100 µM
- MIC [17]: 22.4 µM (≈ 31.7 µg/mL)
- MIC [18]: ≥ 100 µM
- MIC [19]: 22.4 µM (≈ 31.7 µg/mL)
SMILES: CC[C@H](C)[C@H](NC(=O)[C@H](CCCCN)NC(=O)[C@H](CCCCN)NC(=O)[C@H](Cc1ccccc1)NC(=O)[C@H](CC(C)C)NC(=O)[C@H](CCCCN)NC(=O)[C@@H](N)Cc1c[nH]c2ccccc12)C(=O)N[C@@H](CC(C)C)C(=O)N[C@@H](CCCCN)C(=O)N[C@H](C(=O)N[C@@H](CC(C)C)C(=O)O)C(C)C [WKLFKKILKVL]
